Some test systems named below: HCT-116; NCI-H226; UACC-257; DU-145; HT-29; K562; OVCAR-3; HCT-15; SF-295; NCI-H460; U-251; 786-0; MCF7; T47D; PC-3; OVCAR-4.
Test in all cases: growth of human tumour cells (NCI), 48 h

Molecules are shown by their SMILES.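 Five concentrations, 48 hours, 96-well plates. Abbreviation: GI50, concentration required for 50% inhibition of growth.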 The source made the active and inactive calls. No stated cut-off is given here; in the data, active = GI50 up to about 1.1 µM and inactive = higher. Where only a bound is given, the exact number is not on record here.

`COc1cc2c(c(OC)c1OC)C(=O)[C@@H]1[C@H]2N1C(N)=O`: the GI50 was > 100 µM (inactive) in the assay with HCT-116; > 100 µM (inactive) in the assay with NCI-H226; > 100 µM (inactive) with UACC-257; 61.4 µM (inactive) in the assay with DU-145; > 100 µM (inactive) in the assay with HT-29; > 100 µM (inactive) with K562. In addition, the GI50 was > 100 µM (inactive) with OVCAR-3; greater than 100 µM in the assay with HCT-15; > 100 µM (inactive) in the assay with SF-295; 98.2 µM (inactive) in the assay on NCI-H460; 47 µM (inactive) with U-251; > 100 µM (inactive) in the assay with 786-0. Besides, the GI50 in the assay on MCF7, in the assay with T47D and in the assay with PC-3 was > 100 µM (inactive) throughout.

With `CO/N=C1\CC(NC(=O)CNC(=O)OC(C)(C)C)c2ccsc21` (centres undefined), the GI50 with HCT-116, in the assay on OVCAR-4, in the assay with NCI-H226, in the assay on UACC-257, in the assay on DU-145 and in the assay on HT-29 was > 100 µM (inactive) throughout. For the same molecule, the GI50 with OVCAR-3 is > 100 µM (inactive); in the assay on HCT-15 it was greater than 100 µM; in the assay on SF-295 it was > 100 µM (inactive); with NCI-H460, > 100 µM (inactive); in the assay on U-251 it was > 100 µM (inactive); in the assay on MCF7 it was > 100 µM (inactive). Also, the GI50 with T47D and in the assay with PC-3 was > 100 µM (inactive) in each case.

`COc1cc(/C=C/C(=O)OCCc2ccccc2)ccc1O`: the GI50 with HCT-116 is 17.7 µM (inactive); in the assay with OVCAR-4 it was 13 µM (inactive); in the assay with UACC-257, 18.1 µM (inactive); in the assay on DU-145, 16.6 µM (inactive); in the assay on HT-29 it was 21.3 µM (inactive); with K562 it was 20.1 µM (inactive). Besides, the GI50 in the assay with OVCAR-3 was 18.1 µM (inactive); in the assay on HCT-15 it was 21.7 µM; with SF-295, 17.3 µM (inactive); in the assay with NCI-H460, 18.6 µM (inactive); in the assay with U-251 it was 16 µM (inactive); with 786-0 it was 15.7 µM (inactive). Besides, the GI50 in the assay on MCF7 was 20.8 µM (inactive); in the assay on T47D it was 13.5 µM (inactive); with PC-3, 14.2 µM (inactive).

On to `CCOC(=O)c1nnc2c(C(=O)OCC)c3ccccc3n2c1N`, for which the GI50 with HCT-116 is 29.3 µM (inactive); with OVCAR-4 it was 5.2 µM (inactive); with UACC-257 it was 2.09 µM (inactive); in the assay on DU-145 it was 37.4 µM (inactive); in the assay on HT-29, 22.8 µM (inactive); in the assay with K562 it was 11.2 µM (inactive). In addition, the GI50 with OVCAR-3 was 4.46 µM (inactive); in the assay on HCT-15, 7.66 µM; with SF-295, 26.9 µM (inactive); in the assay on NCI-H460 it was 8.13 µM (inactive); with U-251, 5.41 µM (inactive); with 786-0 it was 67 µM (inactive). Besides, the values for the GI50 in the assay with MCF7, with T47D and with PC-3 were 13.1 µM (inactive), 29.9 µM (inactive) and 5.35 µM (inactive), respectively.

As to `CC1(C)COC(c2cccc(C(=O)c3ccccc3)c2)=N1`, the GI50 is > 100 µM (inactive) in the assay with HCT-116; 31 µM (inactive) in the assay with OVCAR-4; 26.2 µM (inactive) with UACC-257; 75.7 µM (inactive) in the assay on DU-145; 33.1 µM (inactive) in the assay with HT-29; 36.2 µM (inactive) with K562. Also, the GI50 in the assay with OVCAR-3 is 24.7 µM (inactive); in the assay with HCT-15 it was 36.2 µM; with SF-295, 40.7 µM (inactive); in the assay on NCI-H460, 59.4 µM (inactive); in the assay with U-251 it was 70 µM (inactive); in the assay with 786-0, 61.1 µM (inactive). The figures for the GI50 with MCF7, in the assay on T47D and in the assay on PC-3 were 47.8 µM (inactive), 25.7 µM (inactive) and 38.9 µM (inactive), respectively.

These data come from ChEMBL document CHEMBL1201862, “PubChem BioAssay data set” (2004).
